The text below walks through data of US11433053B2, “LSD1 inhibitor and preparation method and application thereof” (CSPC ZHONGQI PHARMACEUTICAL TECHNOLOGY (SHIJIAZHUANG) CO., …, priority 2017, dated 2022).

The IC50 is the concentration that inhibits the measured activity by half.

Where only a bound is given, the exact number is not on record here.

The experiment relates to H1417 cells. Put plainly: Cell proliferation inhibitory activity on H1417 cells (CellTiter-Glo, 10 days). Type of experiment: cell-based, human. To be noted: Homo sapiens; for IC50: NCI-H1417, 240 h, H1417 cells, 10 days incubation; for Emax: NCI-H1417, H1417 cells, highest percentage inhibition of cell viability, read-out: Maximum inhibition percentage (%). A digest of the protocol: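 H1417 cells in RPMI 1640 with fetal bovine serum were treated with 10-point 3-fold compound dilutions for 10 days. Viability was read by CellTiter-Glo luminescence. IC50 came from a four-parameter fit of percent inhibition, and maximal inhibition was also categorized.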
For orientation: In ATP-based viability assays light output follows the ATP content of the culture.

In the case of `N[C@H]1CC[C@H](c2nc(C3(CN[C@@H]4C[C@H]4c4ccccc4)CC3)no2)CC1` [Example 144], the IC50 lay within 100 to 500 nM and the Emax lay within 90 to 100%.

Turning to `N[C@H]1CC[C@@H](c2nc(C3(CN[C@@H]4C[C@H]4c4ccccc4)CC3)no2)CC1` [Example 145], the IC50 was in the range of 100 to 500 nM and the Emax was 70 to 90%.

Take `N[C@H]1CC[C@H](c2cc(C3(CN[C@@H]4C[C@H]4c4ccccc4)CC3)no2)CC1` [Example 241]: the IC50 was not above 100 nM and the Emax lay in the range of 70 to 90%.
